Reference: the supplement of paper PMC10307832

Tests used:
Test in all cases: relative viability (nuclei count vs DMSO), 5 days (fraction); higher = more cells survive
[1] = compound: COc1cc(N2CCC(N3CCN(C)CC3)CC2)ccc1Nc1ncc(Cl)c(Nc2ccccc2S(=O)(=O)C(C)C)n1 [NVP-TAE684] + O=C(c1cc(Cc2n[nH]c(=O)c3ccccc23)ccc1F)N1CCN(C(=O)C2CC2)CC1 [Olaparib] (partner 8 µM)
Method in brief: (§1)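 After 5 days of treatment, lung cancer cells in 1536-well plates were fixed and stained in a single step (final 0.05% Triton X-100, 1% formaldehyde, 1 ug/ml Hoechst) and their nuclei counted on 4× images. Treatment had been applied by pin tool the day after seeding as one drug alone or as a fixed anchor-drug dose with five library-drug doses (not always all listed) in √10 steps. Relative viability is the nuclei count of treated wells divided by that of vehicle wells, and values are medians of duplicate plates.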

[2] = compound: COc1cc(N2CCC(N3CCN(C)CC3)CC2)ccc1Nc1ncc(Cl)c(Nc2ccccc2S(=O)(=O)C(C)C)n1 [NVP-TAE684] + CC(=O)c1c(C)c2cnc(Nc3ccc(N4CCNCC4)cn3)nc2n(C2CCCC2)c1=O [Palbociclib] (partner 0.5 µM)
Method in brief: as §1

[3] = compound: C1=CC=C2C(=C1)N=C(S2)C(C#N)C3=NC(=NC=C3)NCCC4=CN=CC=C4 + CC(C)C[C@H](NC(=O)[C@H](Cc1ccccc1)NC(=O)c1cnccn1)B(O)O [Bortezomib] (partner 0.002 µM)
Method in brief: as §1

[4] = compound: C1=CC=C2C(=C1)N=C(S2)C(C#N)C3=NC(=NC=C3)NCCC4=CN=CC=C4 + CC(=O)Nc1cccc(-n2c(=O)n(C3CC3)c(=O)c3c(Nc4ccc(I)cc4F)n(C)c(=O)c(C)c32)c1 [Trametinib] (partner 0.02 µM)
Method in brief: as §1

| Cell Line | relative viability ([1]; first compound 0.2 µM) | relative viability ([1]; first compound 0.6325 µM) | relative viability ([1]; first compound 2 µM) | relative viability ([2]; first compound 0.2 µM) | relative viability ([2]; first compound 0.6325 µM) | relative viability ([2]; first compound 2 µM) | relative viability ([3]; first compound 0.005 µM) | relative viability ([3]; first compound 0.01581 µM) | relative viability ([3]; first compound 0.05 µM) | relative viability ([3]; first compound 0.1581 µM) | relative viability ([3]; first compound 0.5 µM) | relative viability ([4]; first compound 0.005 µM) | relative viability ([4]; first compound 0.01581 µM) | relative viability ([4]; first compound 0.05 µM) | relative viability ([4]; first compound 0.1581 µM) | relative viability ([4]; first compound 0.5 µM) |
| --- | --- | --- | --- | --- | --- | --- | --- | --- | --- | --- | --- | --- | --- | --- | --- | --- |
| NCI-H661 | 0.771 | 0.788 | 0.625 | 0.423 | 0.378 | 0.424 | 0.708 | 0.824 | 0.662 | 0.695 | 0.794 | 0.423 | 0.535 | 0.542 | 0.674 | 0.589 |
| NCI-H727 | 0.612 | 0.601 | 0.679 | 0.638 | 0.623 | 0.516 | 0.526 | 0.76 | 0.819 | 1.13 | 0.624 | 0.39 | 0.364 | 0.399 | 0.381 | 0.407 |
| NCI-H838 | 0.737 | 0.611 | 0.252 | 0.199 | 0.197 | 0.141 | 0.641 | 0.834 | 0.841 | 1.05 | 0.752 | 0.576 | 0.507 | 0.492 | 0.561 | 0.593 |
| NCI-H1355 | 0.657 | 0.713 | 0.499 | 0.366 | 0.368 | 0.269 | 1.1 | 1.1 | 1.22 | 1.27 | 1.1 | 0.439 | 0.425 | 0.473 | 0.494 | 0.324 |
| NCI-H1437 | 0.65 | 0.663 | 0.523 | 0.321 | 0.291 | 0.231 | 0.475 | 0.569 | 0.848 | 0.652 | 0.429 | 0.503 | 0.55 | 0.52 | 0.539 | 0.427 |
| NCI-H1650 | 0.757 | 0.758 | 0.825 | 0.297 | 0.299 | 0.211 | 0.26 | 0.204 | 0.19 | 0.21 | 0.206 | 0.49 | 0.492 | 0.604 | 0.715 | 0.513 |
| NCI-H1651 | 0.181 | 0.186 | 0.173 | 0.506 | 0.572 | 0.468 | 0.636 | 0.924 | 0.935 | 1.05 | 0.957 | 0.825 | 0.831 | 0.827 | 0.933 | 0.857 |
| NCI-H1666 | 0.734 | 0.772 | 0.736 | 0.642 | 0.713 | 0.617 | 1.12 | 0.867 | 0.673 | 0.899 | 0.822 | 0.923 | 0.838 | 0.907 | 0.836 | 0.847 |
| NCI-H1734 | 0.668 | 0.665 | 0.461 | 0.375 | 0.324 | 0.316 | 0.789 | 0.895 | 0.912 | 1.07 | 0.831 | 0.629 | 0.745 | 0.578 | 0.75 | 0.649 |
